Laboratory results reported in patent publication US20180371408A1, “CELL CULTURES AND METHODS OF USE” (priority 2017, published 2018).
pIC50: −log10 of the molar value. Several values for one entry are separate records, joined by “and”; a condition that tells them apart may be missing. Equal values may be shown once. Read-outs that look alike come from different tables or passages of the source.

Columns and labels:
[1] = system: Spermatogonial cells (C18-4); assay: cells; format: cell-based, mouse
[2] = system: reproductive system; conditions: cited from earlier work
[3] = system: Sertoli cells (TM4); assay: cells; format: cell-based, mouse
[4] = system: testicular co-culture: spermatogonial cells (C18-4), Sertoli cells (TM4), Leydig cells (TM3); assay: cells; conditions: Mus musculus
[5] = system: testicular co-culture: spermatogonial cells (C18-4), Sertoli cells (TM4), Leydig cells (TM3); conditions: for concentration with statistically significant decrease in viability (p<0.05): 48 h exposure
[6] = system: Leydig cells (TM3); assay: cells; format: cell-based, mouse
[7] = system: reproductive system; conditions: cited from earlier work; remark: listed apart in the source
[8] = system: testicular co-culture (spermatogonial, Sertoli, Leydig cells); assay: Multi-parametric high-content assay of the co-culture treated with cadmium; format: cell-based, mouse; conditions: 0.05, 0.25, 0.50 and 1.0 μM for 48 h
Description: All cultures were viewed with an Olympus inverted microscope equipped with phase-contrast optics (Olympus, Tokyo, Japan) at intervals during the culture to assess their general appearance. Images were captured and digitized with a Nikon Camera. To further examine the morphology of the cultured cells, a multi-parametric high-content analysis (HCA) was applied to quantify the F-actin cytoskeleton, nuclear shape, and cell proliferation. The spermatogonial cells were identified using typical markers of mouse germ cell nuclear antigen (GCNA1) (Developmental Studies Hybridoma Bank, http://dshb.biology.uiowa.edu, Iowa, IA)(Enders and May, 1994). Leydig cells were identified using steroidogenic acute regulatory protein (StAR)(Clark et al., 1994) (kindly gifted by Dr. Douglas M. Stocco, Texas Tech University). Sertoli cells were stained with SOX9 (Developmental Studies Hybridoma Bank, Iowa, IA). After culture for 48 and 72 h, cells were washed with phosphate buffered saline (PBS), fixed with 4% formaldehyde for 20 min at room temperature, and then washed with PBS three times. […] The multichannel images were automatically captured using an Arrayscan VTI HCS reader with a Studio 2.0 Target Activation BioApplication module (Thermo Scientific, MA). […]
Single-cell based High-content Analysis (HCA) provided multi-parameter phenotypic profiling characterization, including number, nuclear area, shape, and intensity, as previously reported (Liang et al., 2017). […] With 36 fields of each well, at least 4000 cells were analyzed per well, and single-cell based data for each channel were exported for further statistical analysis. […]
For quantitative analysis of three-dimensional F-actin cytoskeleton, we applied the Cytoskeletal Re-arrangement Assay in the Morphology Explorer Bioapplication (ThermoScientific, MA) to determine the number, dimensions and alignment—as well as the texture—of actin fibers based on the manufacturer's guideline (ThermoFisher, 2010). […]

[9] = Mus musculus, 24 h, read-out: IC50
[10] = Mus musculus, 48 h, read-out: IC50
[11] = based on ToxCast database and literature search
[12] = co-culture, 48 h treatment, FIG. 6
[13] = Mus musculus, Leydig, 24 h, read-out: IC50
[14] = Mus musculus, Leydig, 48 h, read-out: IC50
[15] = Spermatogonial Cell, 24 h, highest concentration tested assigned as IC50 where viability did not decrease 50%, read-out: IC50
[16] = Spermatogonial Cell, 48 h, highest concentration tested assigned as IC50 where viability did not decrease 50%, read-out: IC50
[17] = Sertoli Cell, 24 h, highest concentration tested assigned as IC50 where viability did not decrease 50%, read-out: IC50
[18] = Sertoli Cell, 48 h, highest concentration tested assigned as IC50 where viability did not decrease 50%, read-out: IC50
[19] = Co-culture, 24 h, highest concentration tested assigned as IC50 where viability did not decrease 50%
[20] = Co-culture, 48 h, highest concentration tested assigned as IC50 where viability did not decrease 50%
[21] = Leydig Cell, 24 h, highest concentration tested assigned as IC50 where viability did not decrease 50%, read-out: IC50
[22] = Leydig Cell, 48 h, highest concentration tested assigned as IC50 where viability did not decrease 50%, read-out: IC50

| Compound | pIC50 ([4]; 24 h) | pIC50 ([4]; 48 h) | pIC50 [1, 9] | pIC50 [1, 10] | In vivo Reproductive Toxicity [2, 11] | pIC50 [3, 9] | pIC50 [3, 10] | effect on cell viability (NR uptake), in words [5, 12] | pIC50 [6, 13] | pIC50 [6, 14] | other results |
| --- | --- | --- | --- | --- | --- | --- | --- | --- | --- | --- | --- |
| OB(O)O [BA, Boric acid] | < 2.30 | < 2.30 |  |  |  |  |  |  |  |  | pIC50 ([1]; Mus musculus, 24 h): < 2.30; pIC50 ([1]; Mus musculus, 48 h): 2.45; In vivo Reproductive Toxicity ([2]; in vivo): +; call in in vivo models ([2]; in vivo): positive; pIC50 ([3]; Mus musculus, 24 h): < 2.30; pIC50 ([3]; Mus musculus, 48 h): < 2.30; effect on cell viability (NR uptake), in words [5]: statistically significant decreases in cell viability; in vitro call as reproductive toxicant [5]: negative; pIC50 ([6]; Mus musculus, Leydig, 24 h): < 2.30; pIC50 ([6]; Mus musculus, Leydig, 48 h): < 2.30 |
| CCCCOC(=O)c1ccccc1C(=O)OCc1ccccc1 [BBP, Benzyl butyl phthalate] | 3.05 | 3.27 | ≤ 3.40 | ≤ 3.40 | + | ≤ 3.40 | ≤ 3.40 | dose-dependent decrease of cell viability | ≤ 3.40 | ≤ 3.40 | concentration with statistically significant decrease in viability (p<0.05) ([5]; co-culture, FIG. 6): 200 µM |
| O=C(c1ccc2c(c1)C(=O)OC2=O)c1ccc2c(c1)C(=O)OC2=O [BEN, Benzophenone-3,3′,4,4′-tetracarboxylic dianhydride] |  |  |  |  | + |  |  | significant dose-dependent decrease of cell viability |  |  |  |
| CCOP(=S)(OCC)Oc1nc(Cl)c(Cl)cc1Cl [CHL, chlorpyrifos] | 4.04 | 4.05 | 3.93 | 4.02 | + | 3.67 | 3.92 | significant dose-dependent decrease of cell viability | 3.85 | 3.92 | pIC50 ([4]; read-out: IC50 values (mostly)): ≥ 4.00 |
| O=P1(N(CCCl)CCCl)NCCCO1 (stereo not drawn) [CYC, Cyclophosphamide] | < 2.30 | < 2.30 |  |  |  |  |  |  |  |  | pIC50 ([1]; Mus musculus, 24 h): < 2.30; pIC50 ([1]; Mus musculus, 48 h): < 2.30; In vivo Reproductive Toxicity ([2]; in vivo): +; call in in vivo models ([2]; in vivo): positive; pIC50 ([3]; Mus musculus, 24 h): < 2.30; pIC50 ([3]; Mus musculus, 48 h): < 2.30; effect on cell viability (NR uptake), in words [5]: did not cause a significant decrease in cell viability; in vitro call as reproductive toxicant [5]: negative; pIC50 ([6]; Mus musculus, Leydig, 24 h): < 2.30; pIC50 ([6]; Mus musculus, Leydig, 48 h): < 2.30 |
| [Cl][Cd][Cl] [Cd, Cadmium chloride] |  |  |  |  | + |  |  | most toxic |  |  | pIC50 [1, 15]: 5.68; pIC50 [1, 16]: 5.68; reproductive LOAEL ([7]; in rats): 0.088 mg/kg/day; pIC50 [3, 17]: 4.84; pIC50 [3, 18]: 5.02; pIC50 [5, 19]: 4.95; pIC50 [5, 20]: 5.38; pIC50 [6, 21]: 4.80; pIC50 [6, 22]: 5.07; F-actin cytoskeletal structure [8]: destruction of cytoskeletal structure; cell proliferation (cell number) [8]: decrease of cell proliferation (cell number); γH2AX foci formation ([8]; dose-dependent): significantly induced phosphorylation of γH2AX foci formation |
| CCCCOC(=O)c1ccccc1C(=O)OCCCC [DBP, Dibutyl phthalate] | 3.36 | 3.41 | ≤ 3.40 | 3.43 | + | ≤ 3.40 | ≤ 3.40 | dose-dependent decrease of cell viability | ≤ 3.40 | ≤ 3.40 | concentration with statistically significant decrease in viability (p<0.05) ([5]; co-culture, FIG. 6): 200 µM |
| CCOC(=O)c1ccccc1C(=O)OCC [DEP, Diethylphthalate] | < 3.40 | < 3.40 | < 3.40 | < 3.40 | − | < 3.40 | < 3.40 | no or slight decrease of cell viability | < 3.40 | < 3.40 | developmental toxicity of phthalates (literature) ([2]; in vivo): developmental non-toxic |
| CC/C(=C(/CC)c1ccc(O)cc1)c1ccc(O)cc1 [DES, Diethylstilbestrol] |  |  |  |  | + |  |  |  |  |  | reproductive LOAEL ([7]; in rats): 10 mg/kg/day |
| COC(=O)c1ccccc1C(=O)OC [DMP] |  |  |  |  |  |  |  | no or slight decrease of cell viability |  |  | developmental toxicity of phthalates (literature) ([2]; in vivo): developmental non-toxic |
| CCCCCOC(=O)c1ccccc1C(=O)OCCCCC [DPP] |  |  |  |  |  |  |  | dose-dependent decrease of cell viability |  |  | pIC50 [1, 16]: 3.43; pIC50 [5, 19]: 3.26; pIC50 [5, 20]: 3.45; pIC50 [6, 22]: 3.61 |
| NC(=O)NO [HU] |  |  |  |  |  |  |  | statistically significant decreases in cell viability |  |  | pIC50 [1, 16]: 3.52; pIC50 [3, 17]: 3.40; pIC50 [3, 18]: 3.82; pIC50 [5, 20]: 3.70; pIC50 [6, 21]: 3.22; pIC50 [6, 22]: 3.70 |
| O=C1NS(=O)(=O)c2ccccc21 [SAC] |  |  |  |  |  |  |  | did not cause a significant decrease in cell viability |  |  |  |
| Oc1cc(Cl)ccc1Oc1ccc(Cl)cc1Cl [TCS] |  |  |  |  |  |  |  | significant dose-dependent decrease of cell viability |  |  | pIC50 [1, 15]: 4.20; pIC50 [1, 16]: 4.24; pIC50 [3, 17]: 4.09; pIC50 [3, 18]: 4.14; pIC50 [5, 19]: 3.92; pIC50 [5, 20]: 4.12; pIC50 [6, 21]: 3.87; pIC50 [6, 22]: 4.10 |
| CCCC(CCC)C(=O)[O-].[Na+] [VPA, Valproic acid sodium salt] | < 1.70 | 2.05 | < 1.70 | 2.22 | + | < 1.70 | 2.12 | statistically significant decreases in cell viability | < 1.70 | 2.02 |  |
| C[C@H]1CCCC(=O)CCC/C=C/c2cc(O)cc(O)c2C(=O)O1 [ZEA, Zearalenone] | 5.14 | 5.39 | 5.42 | 5.70 | + | 5.51 | 5.60 |  | 5.47 | 5.60 | reproductive LOAEL ([7]; in rats): 1 mg/kg/day; pIC50 ([4]; read-out: IC50 values (mostly)): ≥ 4.00 |
| Sodium arsenite [As] |  |  |  |  |  |  |  |  |  |  | pIC50 ([1]; read-out: IC50): 5.16 and 5.17; In vivo Reproductive Toxicity ([2]; in vivo): +; reproductive LOAEL ([7]; rat, in vivo): 8 mg/kg/day; pIC50 ([3]; read-out: IC50): 4.92 and 5.16; pIC50 [5]: 4.82 and 5.00; effect on cell viability (NR uptake), in words [5]: most toxic; pIC50 ([6]; read-out: IC50): 4.69 and 4.79 |
| TCEP |  |  |  |  |  |  |  | statistically significant decreases in cell viability |  |  | pIC50 [1, 15]: 2.29; pIC50 [1, 16]: 2.43 |
